Target: T1, WT BTK protein (Homo sapiens, UniProt Q06187)
T1 construct: measured for intracellular BTK protein levels by Western blotting; endogenous in cells; host or cells: TMD-8 or RAMOS cells
Experiment: BTK protein degradation assay (Western blotting), WT BTK
Format: cell-based
Settings: concentration range accounting for 50% degradation of WT BTK protein, TMD-8 or RAMOS cells, 24 hours
Procedure, shortened: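 TMD-8 cells (1×10^6 cells/mL) treated 24 h with compound serial dilutions, then lysed in RIPA. Equal protein loads analysed by Western blot for BTK with GAPDH/β-actin as loading controls; activity binned by concentration giving 50% WT BTK degradation.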

T1 sequence (Q06187 whole entry): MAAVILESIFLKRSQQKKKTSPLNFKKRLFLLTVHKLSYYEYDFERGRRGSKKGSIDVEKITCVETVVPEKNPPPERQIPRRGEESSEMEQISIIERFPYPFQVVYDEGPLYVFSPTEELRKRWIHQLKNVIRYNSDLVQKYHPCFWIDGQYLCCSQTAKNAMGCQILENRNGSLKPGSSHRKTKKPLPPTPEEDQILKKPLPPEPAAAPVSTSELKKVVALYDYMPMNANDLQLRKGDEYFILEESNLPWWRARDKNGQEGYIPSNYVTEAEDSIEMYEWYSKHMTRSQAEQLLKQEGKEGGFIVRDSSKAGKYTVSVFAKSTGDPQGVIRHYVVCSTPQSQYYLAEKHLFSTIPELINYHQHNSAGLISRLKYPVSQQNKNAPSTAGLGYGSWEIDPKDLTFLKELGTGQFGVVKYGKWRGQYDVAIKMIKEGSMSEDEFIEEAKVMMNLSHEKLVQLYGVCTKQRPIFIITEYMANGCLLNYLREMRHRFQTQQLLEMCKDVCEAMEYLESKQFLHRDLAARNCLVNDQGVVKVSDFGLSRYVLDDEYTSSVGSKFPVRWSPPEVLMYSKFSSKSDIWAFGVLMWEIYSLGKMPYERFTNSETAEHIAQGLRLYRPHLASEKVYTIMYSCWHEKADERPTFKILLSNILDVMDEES

Row | DC50 [nM] | Structure (SMILES)
1 | 0.1 to 10 | Cn1nc(Nc2c(Br)cccc2Br)c2cnc(Nc3ccc4c(c3)CN(CC3CCN(c5ccc6c(c5)C(=O)N(C5CCC(=O)NC5=O)C6=O)CC3)CC4)nc21 (centres unmarked) [Compound 217, 5-(4-((7-((3-((2,6-Dibromophenyl)amino)-1-methyl-1H-pyrazolo[3,4-d]pyrimidin-6-yl)amino)-3,4-dihydroisoquinolin-2 (1H)-yl)methyl)piperidin-1-yl)-2-(2,6-dioxopiperidin-3-yl)isoindoline-1,3-dione]
2 | 0.1 to 10 | Cn1nc(Nc2c(Cl)cccc2Br)c2cnc(Nc3ccc4c(c3)CN(CC3CCN(c5ccc6c(c5)C(=O)N(C5CCC(=O)NC5=O)C6=O)CC3)CC4)nc21 (centres unmarked) [Compound 218, 5-(4-((7-((3-((2-Bromo-6-chlorophenyl)amino)-1-methyl-1H-pyrazolo[3,4-d]pyrimidin-6-yl)amino)-3,4-dihydroisoquinolin-2 (1H)-yl)methyl)piperidin-1-yl)-2-(2,6-dioxopiperidin-3-yl)isoindoline-1,3-dione]
3 | 0.1 to 10 | Cn1nc(Nc2c(Cl)cccc2I)c2cnc(Nc3ccc4c(c3)CN(CC3CCN(c5ccc6c(c5)C(=O)N(C5CCC(=O)NC5=O)C6=O)CC3)CC4)nc21 (centres unmarked) [Compound 219, 5-(4-((7-((3-((2-chloro-6-iodophenyl)amino)-1-methyl-1H-pyrazolo[3,4-d]pyrimidin-6-yl)amino)-3,4-dihydroisoquinolin-2 (1H)-yl)methyl)piperidin-1-yl)-2-(2,6-dioxopiperidin-3-yl)isoindoline-1,3-dione]
4 | 0.1 to 10 | Cc1cccc(C)c1Nc1nn(C)c2nc(Nc3ccc4c(c3)CN(CC3CCN(c5cc6c(cc5F)C(=O)N(C5CCC(=O)NC5=O)C6)CC3)CC4)ncc12 (centres unmarked) [Compound 220, 3-(5-(4-((7-((3-((2,6-Dimethylphenyl)amino)-1-methyl-1H-pyrazolo[3,4-d]pyrimidin-6-yl)amino)-3,4-dihydroisoquinolin-2 (1H)-yl)methyl)piperidin-1-yl)-6-fluoro-1-oxoisoindolin-2-yl)piperidin-2,6-one]
5 | 0.1 to 10 | Cc1cc(F)cc(C)c1Nc1nn(C)c2nc(Nc3ccc4c(c3)CN(CC3CCN(c5ccc6c(c5)C(=O)N(C5CCC(=O)NC5=O)C6=O)CC3)CC4)ncc12 (centres unmarked) [Compound 221, 2-(2,6-dioxopiperidin-3-yl)-5-(4-((7-((3-((4-fluoro-2,6-dimethylphenyl)amino)-1-methyl-1H-pyrazolo[3,4-d]pyrimidin-6-yl)amino)-3,4-dihydroisoquinolin-2 (1H)-yl)methyl)piperidin-1-yl)isoindoline-1,3-dione]
6 | 0.1 to 10 | Cc1cccc(C)c1Nc1nn(C)c2nc(Nc3ccc(C4CCN(C(=O)CC5CCN(c6ccc7c(c6)C(=O)N(C6CCC(=O)NC6=O)C7=O)CC5)CC4)cc3)ncc12 (centres unmarked) [Compound 222, 5-(4-(2-(4-(4-((3-((2,6-Dimethylphenyl)amino)-1-methyl-1H-pyrazolo[3,4-d]pyrimidin-6-yl)amino)phenyl)piperidin-1-yl)-2-oxoethyl)piperidin-1-yl)-2-(2,6-dioxopiperidin-3-yl)isoindoline-1,3-dione]
7 | 0.1 to 10 | Cc1cccc(C)c1Nc1nn(C)c2nc(Nc3ccc(C4CCN(C(=O)CN5CCN(c6ccc7c(c6)C(=O)N(C6CCC(=O)NC6=O)C7=O)CC5)CC4)cc3)ncc12 (centres unmarked) [Compound 225, 5-(4-(2-(4-(4-((3-((2,6-dimethylphenyl)amino)-1-methyl-1H-pyrazolo[3,4-d]pyrimidin-6-yl)amino)phenyl)piperidin-1-yl)-2-oxoethyl)piperazin-1-yl)-2-(2,6-dioxopiperidin-3-yl)isoindoline-1,3-dione]
8 | 0.1 to 10 | Cc1cccc(C)c1Nc1nn(C)c2nc(Nc3ccc(C4CCN(C(=O)CN5CCN(c6ccc7c(c6)C(=O)N(C6CCC(=O)NC6=O)C7=O)CC5)CC4)c(F)c3)ncc12 (centres unmarked) [Compound 226, 5-(4-(2-(4-(4-((3-((2,6-Dimethylphenyl)amino)-1-methyl-1H-pyrazolo[3,4-d]pyrimidin-6-yl)amino)-2-fluorophenyl)piperidin-1-yl)-2-oxoethyl)piperazin-1-yl)-2-(2,6-dioxopiperidin-3-yl)isoindoline-1,3-dione]
9 | 0.1 to 10 | Cc1cccc(C)c1Nc1nn(C)c2nc(Nc3ccc(C4CCN(C(=O)CC5CCN(c6ccc7c(c6)C(=O)N(C6CCC(=O)NC6=O)C7=O)CC5)CC4)c(F)c3)ncc12 (centres unmarked) [Compound 227, 5-(4-(2-(4-(4-((3-((2,6-dimethylphenyl)amino)-1-methyl-1H-pyrazolo[3,4-d]pyrimidin-6-yl)amino)-2-fluorophenyl)piperidin-1-yl)-2-oxoethyl)piperidin-1-yl)-2-(2,6-dioxopiperidin-3-yl)isoindoline-1,3-dione]
10 | 0.1 to 10 | Cc1cccc(C)c1Nc1nn(C)c2nc(Nc3ccc(C4CCN(C(=O)C5CN(c6ccc7c(c6)C(=O)N(C6CCC(=O)NC6=O)C7=O)C5)CC4)cc3)ncc12 (centres unmarked) [Compound 228, 5-(3-(4-(4-((3-((2,6-dimethylphenyl)amino)-1-methyl-1H-pyrazolo[3,4-d]pyrimidin-6-yl)amino)phenyl)piperidine-1-carbonyl)azetidin-1-yl)-2-(2,6-dioxopiperidin-3-yl)isoindoline-1,3-dione]
11 | 10 to 1000 | Cc1cccc(C)c1Nc1nn(C)c2nc(Nc3ccc(C4CCN(C(=O)C5CN(c6ccc7c(c6)C(=O)N(C6CCC(=O)NC6=O)C7=O)C5)CC4)c(F)c3)ncc12 (centres unmarked) [Compound 229, 5-(3-(4-(4-((3-((2,6-dimethylphenyl)amino)-1-methyl-1H-pyrazolo[3,4-d]pyrimidin-6-yl)amino)-2-fluorophenyl)piperidine-1-carbonyl)azetidin-1-yl)-2-(2,6-dioxopiperidin-3-yl)isoindoline-1,3-dione]
12 | 0.1 to 10 | Cc1cccc(C)c1Nc1nn(C)c2nc(Nc3ccc(C4=CCN(CC5CCN(c6ccc7c(c6)C(=O)N(C6CCC(=O)NC6=O)C7=O)CC5)CC4)cc3)ncc12 (centres unmarked) [Compound 230, 5-(4-((4-(4-((3-((2,6-Dimethylphenyl)amino)-1-methyl-1H-pyrazolo[3,4-d]pyrimidin-6-yl)amino)phenyl)-3,6-dihydropyridin-1 (2H)-yl)methyl)piperidin-1-yl)-2-(2,6-dioxopiperidin-3-yl)isoindoline-1,3-dione]
13 | 10 to 1000 | Cc1cccc(C)c1Nc1nn(C)c2nc(Nc3ccc(C4CCN(CC5CCN(c6ccc7c(c6)C(=O)N(C6CCC(=O)NC6=O)C7=O)CC5)CC4)cc3F)ncc12 (centres unmarked) [Compound 231, 5-(4-((4-(4-((3-((2,6-Dimethylphenyl)amino)-1-methyl-1H-pyrazolo[3,4-d]pyrimidin-6-yl)amino)-3-fluorophenyl)piperidin-1-yl)methyl)piperidin-1-yl)-2-(2,6-dioxopiperidin-3-yl)isoindoline-1,3-dione]
14 | 0.1 to 10 | Cc1cccc(C)c1Nc1nn(C)c2nc(Nc3ccc4c(c3)CN(C(=S)C3CCN(c5ccc6c(c5)C(=O)N(C5CCC(=O)NC5=O)C6=O)CC3)CC4)ncc12 (centres unmarked) [Compound 232, 5-(4-(7-((3-((2,6-dimethylphenyl)amino)-1-methyl-1H-pyrazolo[3,4-d]pyrimidin-6-yl)amino)-1,2,3,4-tetrahydroisoquinoline-2-carbonothioyl)piperidin-1-yl)-2-(2,6-dioxopiperidin-3-yl)isoindoline-1,3-dione]
